Paper PMC9486936 (ACS Chemical Biology, 2022)

System: NocG
Assay: LC-HRMS, formation of beta-ketoacid […]
Format: biochemical, Nodularia sp. LEGE 06071
Conditions: read-out: apparent Km; variable hexanoyl-SNAC with octanoyl-SNAC as co-substrate

For `CCCCCC(=O)SCCNC(C)=O` [hexanoyl-SNAC], the Km was 135 ± 29 µM.
